Results published in US20150064107A1, “IMAGING AGENT” (King's College London, priority 2013, published 2015).
Entries after “also recorded” stand apart in the source; their conditions may differ.

Assays:
[1] = In vivo PET/MRI imaging of the lymph node system after footpad injection; set-up: species or system mouse (C57BL/6); conditions: mouse, 6 hours post injection
Experimental: In vivo PET/MRI imaging of the lymph node (LN) system was carried out using a preclinical nanoScan® PET•MRI scanner with 1 T magnetic field (Mediso Ltd, H-1047, Budapest, Hungary), utilising ^18F-labelled CoxFe3-xO4@NaYF4(Yb, Er)-BP-PEG (10 K) or ^18F-labelled Fe3O4@NaYF4(Yb, Tm)-BP-PEG (2 K) NPIAs as probes. After injection of 20 μL of [^18F]-fluoride-labelled CoxFe3-xO4@NaYF4(Yb, Er)-BP-PEG solution containing 6.3 MBq radioactivity and 20 μg Fe into the rear right foot pad of a mouse (C57BL/6, female, 6-7 weeks old, 20 g), coregistered PET and MRI images were recorded 6 hours post injection. The most prominent signal was from the popliteal LN, which is the nearest draining LN from the injection point, and the next most prominent signal was from the medial iliac LN (FIG. 5a, 5c & 5d).
To further explore the potential value of these NPIAs, a more detailed lymph node study by PET/MRI imaging was undertaken, investigating the popliteal LN in response to an acute inflammatory stimulus in the foot. A solution of ^18F-labelled Fe3O4@NaYF4(Yb, Tm)-BP-PEG (20 μL, 4.5 MBq, 20 μg Fe) was injected into each of the two rear footpads of a female C57BL/6 mouse in which only the right leg was inflamed. […] A control experiment was carried out with [^18F]-fluoride but without NPs Fe3O4@NaYF4(Yb, Tm)-BP-PEG, under the same conditions. […]

[2] = Ex vivo fluorescent imaging of excised popliteal lymph nodes under 980 nm laser; assay type: in vivo, mouse (C57BL/6); conditions: multi-photon laser scanning microscope
Experimental: To further explore the potential value of these NPIAs, a more detailed lymph node study by PET/MRI imaging was undertaken, investigating the popliteal LN in response to an acute inflammatory stimulus in the foot. A solution of ^18F-labelled Fe3O4@NaYF4(Yb, Tm)-BP-PEG (20 μL, 4.5 MBq, 20 μg Fe) was injected into each of the two rear footpads of a female C57BL/6 mouse in which only the right leg was inflamed. […] A control experiment was carried out with [^18F]-fluoride but without NPs Fe3O4@NaYF4(Yb, Tm)-BP-PEG, under the same conditions. […] By MRI scanning prior to injection of the labellend NPs, no contrast difference was seen on MR images between the normal LN and the inflamed one. The popliteal lymph nodes on the inflamed side were dissected and viewed, together with the adjacent fatty tissue, with a Femtonics (Budapest, Hungary) Fem2D in vivo multi-photon laser scanning microscope under excitation of a 980 nm laser. […] Fluorescent NPIAs were also found inside cells of adjacent fat tissue of the inflamed popliteal LN.

In the case of [^18F]-fluoride, the “lymph node signal on PET (and MRI) images” value [1] is reported as “no contrast in lymph nodes; also recorded: did not show any signal at the lymph nodes” and the “fluorescence of excised inflamed popliteal lymph node” value [2] is reported as “faint granular fluorescence”.
